From patent publication US20090036450A1, “PYRAZOLE COMPOUNDS AND USE THEREOF” (JAPAN TOBACCO, INC., priority 2006, published 2009)
Structures can show the parent of a compound that is named as a salt.

Target: T1, human liver glycogen phosphorylase (Homo sapiens, UniProt P06737)
T1 construct: made in house; host or cells: Sf9 insect cells (suspension of disrupted cells, diluted in BES buffer, not purified)
T1 sequence (P06737 1-847): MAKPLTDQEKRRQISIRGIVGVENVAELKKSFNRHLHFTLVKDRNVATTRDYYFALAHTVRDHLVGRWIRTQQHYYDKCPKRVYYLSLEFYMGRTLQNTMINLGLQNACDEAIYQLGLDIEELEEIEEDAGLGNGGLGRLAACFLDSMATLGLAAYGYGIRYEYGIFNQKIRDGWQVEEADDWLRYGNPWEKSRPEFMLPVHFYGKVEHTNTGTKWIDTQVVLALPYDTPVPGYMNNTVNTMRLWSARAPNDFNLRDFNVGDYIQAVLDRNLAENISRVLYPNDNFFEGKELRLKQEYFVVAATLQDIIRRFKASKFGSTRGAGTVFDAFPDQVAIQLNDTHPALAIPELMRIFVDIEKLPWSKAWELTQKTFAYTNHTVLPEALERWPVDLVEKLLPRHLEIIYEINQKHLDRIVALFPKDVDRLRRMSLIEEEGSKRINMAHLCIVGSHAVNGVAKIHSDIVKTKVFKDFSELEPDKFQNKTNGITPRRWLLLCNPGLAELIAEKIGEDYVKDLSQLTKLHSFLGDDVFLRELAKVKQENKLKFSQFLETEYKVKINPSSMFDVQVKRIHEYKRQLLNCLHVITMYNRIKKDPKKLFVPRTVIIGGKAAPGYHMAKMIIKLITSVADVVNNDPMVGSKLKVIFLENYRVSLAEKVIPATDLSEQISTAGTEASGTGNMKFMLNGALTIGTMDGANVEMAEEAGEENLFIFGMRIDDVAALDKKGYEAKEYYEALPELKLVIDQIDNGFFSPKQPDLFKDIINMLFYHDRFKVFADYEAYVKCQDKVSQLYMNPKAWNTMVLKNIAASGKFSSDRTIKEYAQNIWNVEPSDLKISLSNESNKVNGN
Assay: Liver glycogen phosphorylase activity, forward reaction system (NADPH detection at 340 nm)
Format: biochemical
Conditions: enzyme inhibitory activity against recombinant human liver glycogen phosphorylase (Sf9 cell lysate), room temperature, 75 minutes
Method in brief: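 Recombinant human liver glycogen phosphorylase from Sf9 lysate, run in forward direction with glycogen and phosphate substrate plus glucose, coupled via phosphoglucomutase/G6PDH to NADPH formation. BES buffer pH 6.8, room temperature, 75 min; A340 change minus blank gives activity. IC50 from percent inhibition vs DMSO control.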

Compound | IC50 [nM]
Cc1nc(CO)oc1CNC(=O)c1cc(NC(=O)c2cc(F)c(F)cc2Cl)[nH]n1 [Example 3-24, 5-(2-chloro-4,5-difluoro-benzoylamino)-1H-pyrazole-3-carboxylic acid (2-hydroxymethyl-4-methyl-oxazol-5-ylmethyl)-amide hydrochloride] | < 100
Cc1nc(C(=O)N(C)Cc2ccccc2)oc1CNC(=O)c1cc(NC(=O)c2cc(F)c(F)cc2Cl)[nH]n1 [Example 3-25, 5-({[5-(2-chloro-4,5-difluoro-benzoylamino)-1H-pyrazole-3-carbonyl]-amino}-methyl)-4-methyl-oxazole-2-carboxylic acid benzyl-methyl-amide] | < 100
